In the test the target is T1, cloned human glucagon receptor (Homo sapiens, UniProt P47871).
T1 construct: expressed in transfected cells; plasma membrane preparation
Kind of test: Glucagon Binding Assay (II). Conditions: for IC50: plasma membranes of BHK cells expressing the receptor, read-out: Glu Bd Assay (II) IC50; for inhibition at 1 µM: screened at 1 μM, library compounds, read-out: displacement of the glucagon tracer when screened at 1 μM concentration in the glucagon binding assay II.

T1 sequence (P47871 26-477): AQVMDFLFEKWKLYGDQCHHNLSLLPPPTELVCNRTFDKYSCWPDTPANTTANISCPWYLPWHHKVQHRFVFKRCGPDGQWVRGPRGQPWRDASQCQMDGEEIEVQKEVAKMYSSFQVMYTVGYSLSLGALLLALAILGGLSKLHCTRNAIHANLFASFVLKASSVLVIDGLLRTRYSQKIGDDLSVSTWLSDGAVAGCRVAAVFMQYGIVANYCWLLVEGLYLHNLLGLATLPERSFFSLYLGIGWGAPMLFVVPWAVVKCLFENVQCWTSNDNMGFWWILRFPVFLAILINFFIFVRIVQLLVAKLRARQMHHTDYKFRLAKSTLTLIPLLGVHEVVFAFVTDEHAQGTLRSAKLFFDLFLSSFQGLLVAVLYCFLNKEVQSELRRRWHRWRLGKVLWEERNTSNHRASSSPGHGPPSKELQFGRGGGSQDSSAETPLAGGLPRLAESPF

Regarding `C[C@@H](C1CCCCC1)N(Cc1ccc(C(=O)NCCC(=O)O)cc1)C(=O)Nc1ccc(OC(F)(F)F)cc1` [Example 139, 3-{4-[1-((1S)-1-Cyclohexylethyl)-3-(4-trifluoromethoxyphenyl)ureidomethyl]benzoylamino)propionic acid], the IC50 worked out at 0.379 µM.
The same measure, in the same setting: the result for `C[C@@H](C1CCCCC1)N(Cc1ccc(C(=O)NCCC(=O)O)cc1)C(=O)Nc1cc(Cl)cc(Cl)c1` [Example 140, 3-{4-[1-((1S)-1-Cyclohexylethyl)-3-(3,5-dichlorophenyl)ureidomethyl]benzoylamino)propionic acid] reads 0.574 µM.
On to `O=C(O)CCNC(=O)c1ccc(CN(CCC(c2ccccc2)c2ccccc2)Cc2ccc(C(F)(F)F)cc2)cc1` [Example 141, 3-(4-{[(3,3-Diphenylpropyl)-(4-trifluoromethylbenzyl)amino]methyl}benzoylamino)propionic acid], for which the inhibition at 1 µM was over 50%.
On the same count and under the same terms, the result for `O=C(O)CCNC(=O)c1ccc(CN(CCC(c2ccccc2)c2ccccc2)Cc2ccc(C(F)(F)F)cc2)s1` [Example 142, 3-(5-{[(3,3-Diphenylpropyl)-(4-trifluoromethylbenzyl)amino]methyl}thiophene-2-carbonylamino)propionic acid] reads over 50%; that for `O=C(O)CCNC(=O)c1ccc(CN(Cc2ccccc2Cl)CC(c2ccccc2)c2ccccc2)cc1` [Example 143, 3-(4-{[(2,2-Diphenylethyl)-(2-chlorobenzyl)amino]methyl}benzoylamino)propionic acid], over 50%; that for `O=C(O)CCNC(=O)c1ccc(CN(Cc2ccccc2Cl)CC(c2ccccc2)c2ccccc2)s1` [Example 144, 3-(5-{[(2,2-Diphenylethyl)-(2-chlorobenzyl)amino]methyl}thiophene-2-carbonylamino)propionic acid], over 50%.
On to `O=C(O)CCNC(=O)c1ccc(CN(CCc2ccccc2)Cc2ccc(Oc3ccccc3)cc2)cc1` [Example 145, 3-(4-{[(2-Phenylethyl)-(4-phenoxybenzyl)amino]methyl}benzoylamino)propionic acid], for which the inhibition at 1 µM was over 50%.
For `O=C(O)CCNC(=O)c1ccc(CN(CCc2ccccc2)Cc2ccc(Oc3ccccc3)cc2)s1` [Example 146, 3-(5-{[(2-Phenylethyl)-(4-phenoxybenzyl)amino]methyl}thiophene-2-carbonylamino)propionic acid], the inhibition at 1 µM was over 50%.
Same read-out and setting: with `Cc1ccc(CN(CCc2ccc(Cl)cc2Cl)Cc2ccc(C(=O)NCCC(=O)O)s2)cc1` [Example 147, 3-(5-{[(2,4-Dichlorophenylethyl)-(4-methylbenzyl)amino]methyl}thiophene-2-carbonylamino)propionic acid] the figure was over 50%.
For `O=C(O)CCNC(=O)c1ccc(CN(Cc2ccc(Cl)cc2)Cc2ccc(Cl)cc2)s1` [Example 148, 3-(5-{[Bis-(4-chlorobenzyl)amino]methyl}thiophene-2-carbonylamino)propionic acid], the inhibition at 1 µM is over 50%.
The same measure, in the same setting: the result for `COc1ccc(CN(Cc2ccc(C(=O)NCCC(=O)O)cc2)Cc2ccc(C(C)C)cc2)cc1OC` [Example 149, 3-(4-{[(3,4-Dimethoxybenzyl)-(4-isopropylbenzyl)amino]methyl}benzoylamino)propionic acid] reads over 50%.
Still for that read-out and setting: with `COc1ccc(CN(Cc2ccc(C(C)C)cc2)Cc2ccc(C(=O)NCCC(=O)O)s2)cc1OC` [Example 150, 3-(5-{[(3,4-Dimethoxybenzyl)-(4-isopropylbenzyl)amino]methyl}thiophene-2-carbonylamino)propionic acid] the figure was over 50%; with `COc1ccc(CN(Cc2ccc(C(=O)NCCC(=O)O)cc2)Cc2cccc(Oc3cccc(C(F)(F)F)c3)c2)cc1OC` [Example 151, 3-(4-{[(3,4-Dimethoxybenzyl)-(3-[3-trifluoromethylphenoxy]benzyl)amino]methyl}benzoylamino)propionic acid], over 50%.
`COc1ccc(CN(Cc2cccc(Oc3cccc(C(F)(F)F)c3)c2)Cc2ccc(C(=O)NCCC(=O)O)s2)cc1OC` [Example 152, 3-(5-{[(3,4-Dimethoxybenzyl)-(3-[3-trifluoromethylphenoxy]benzyl)amino]methyl}thiophene-2-carbonylamino)propionic acid]: the inhibition at 1 µM was over 50%.
In the case of `Cc1ccc(CN(CCc2ccc(Cl)cc2Cl)Cc2ccc(C(=O)NCCC(=O)O)cc2)cc1` [Example 153], the IC50 stood at 0.454 µM.
Same read-out and setting: the result for `O=C(O)CCNC(=O)c1ccc(CN(Cc2cccc(Cl)c2)Cc2cccc(Cl)c2)cc1` [Example 154, 3-(4-{[Bis-(3-chlorobenzyl)amino]methyl}benzoylamino)propionic acid] reads 0.167 µM.
Still for that read-out and setting: with `O=C(O)CCNC(=O)c1ccc(CN(CCC(c2ccccc2)c2ccccc2)Cc2ccc3c(c2)OCO3)cc1` [Example 155, 3-(4-{[(3,3-Diphenylpropyl)-(3,4-methylenedioxybenzyl)amino]methyl}benzoylamino)propionic acid] the figure was 0.823 µM.
Same read-out and setting: the result for `CC(C)(C)C1CCC(N(Cc2ccc(C(=O)NCCc3nnn[nH]3)cc2)C(=O)Nc2ccc(OC(F)(F)F)cc2)CC1` (centres unmarked) [Example 156, 4-[1-(4-tert-Butylcyclohexyl)-3-(4-trifluoromethoxyphenyl)ureidomethyl]-N-[2-(1H-tetrazol-5-yl)ethyl]benzamide] reads 0.146 µM; that for `CC(C)(C)C1CCC(N(Cc2ccc(C(=O)NCCc3nnn[nH]3)cc2)C(=O)Nc2cc(Cl)cc(Cl)c2)CC1` (centres unmarked) [Example 157, 4-[1-(4-tert-Butylcyclohexyl)-3-(3,5-dichlorophenyl)ureidomethyl]-N-[2-(1H-tetrazol-5-yl)ethyl]benzamide], 0.25 µM; that for `CC(C)(C)[C@H]1CC[C@H](N(Cc2ccc(C(=O)Nc3nn[nH]n3)cc2)C(=O)Nc2ccc(OC(F)(F)F)cc2)CC1` [Example 158, 4-[1-(trans-4-tert-Butylcyclohexyl)-3-(4-trifluoromethoxyphenyl)ureidomethyl]-N-(2H-tetrazol-5-yl)benzamide], 0.007 µM.
Turning to `CC(C)(C)C1CCC(N(Cc2ccc(C(=O)Nc3nnn[nH]3)cc2)C(=O)Nc2ccc(Cl)cc2)CC1` (centres unmarked) [Example 159, 4-[1-(4-tert-Butylcyclohexyl)-3-(4-chlorophenyl)ureidomethyl]-N-(1H-tetrazol-5-yl)benzamide], the inhibition at 1 µM is over 50%.
On the same count and under the same terms, the result for `CC(C)(C)C1CCC(N(Cc2ccc(C(=O)Nc3ccc4c(c3)OCCO4)cc2)C(=O)Nc2ccc(Cl)cc2)CC1` (centres unmarked) [Example 160, 4-[1-(4-tert-Butylcyclohexyl)-3-(4-chlorophenyl)ureidomethyl]-N-(2,3-dihydro-1,4-benzodioxin-6-yl)benzamide] reads over 50%; that for `CC(C)(C)C1CCC(N(Cc2ccc(C(=O)Nc3ccc4c(c3)OCCO4)cc2)C(=O)Nc2ccc(OC(F)(F)F)cc2)CC1` (centres unmarked) [Example 161, 4-[1-(4-tert-Butylcyclohexyl)-3-(4-trifluoromethoxyphenyl)ureidomethyl]-N-(2,3-dihydro-1,4-benzodioxin-6-yl)benzamide], over 50%; that for `CC(C)(C)C1CCC(N(Cc2ccc(C(=O)Nc3ccc(O)c([N+](=O)[O-])c3)cc2)C(=O)Nc2ccc(Cl)cc2)CC1` (centres unmarked) [Example 162, 4-[1-(4-tert-Butylcyclohexyl)-3-(4-chlorophenyl)ureidomethyl]-N-(4-hydroxy-3-nitrophenyl)benzamide], over 50%.
Regarding `CC(C)(C)C1CCC(N(Cc2ccc(C(=O)Nc3ccc(O)c([N+](=O)[O-])c3)cc2)C(=O)Nc2ccc(OC(F)(F)F)cc2)CC1` (centres unmarked) [Example 163, 4-[1-(4-tert-Butylcyclohexyl)-3-(4-trifluoromethoxyphenyl)ureidomethyl]-N-(4-hydroxy-3-nitrophenyl)benzamide], the inhibition at 1 µM was over 50%.
Turning to `CC(C)(C)C1CCC(N(Cc2ccc(C(=O)Nc3ncnc4[nH]ncc34)cc2)C(=O)Nc2ccc(Cl)cc2)CC1` (centres unmarked) [Example 164, 4-[1-(4-tert-Butylcyclohexyl)-3-(4-chlorophenyl)ureidomethyl]-N-(1H-pyrazolo[3,4-d]pyrimidin-4-yl)benzamide], the inhibition at 1 µM is over 50%.
The same measure, in the same setting: with `CC(C)(C)C1CCC(N(Cc2ccc(C(=O)Nc3ncnc4[nH]ncc34)cc2)C(=O)Nc2ccc(OC(F)(F)F)cc2)CC1` (centres unmarked) [Example 165, 4-[1-(4-tert-Butylcyclohexyl)-3-(4-trifluoromethoxyphenyl)ureidomethyl]-N-(1H-pyrazolo[3,4-d]pyrimidin-4-yl)benzamide] the figure was over 50%.
Same read-out and setting: the result for `CC(C)(C)C1CCC(N(Cc2ccc(C(=O)Nc3ccc4c(c3)C(=O)NC4=O)cc2)C(=O)Nc2ccc(Cl)cc2)CC1` (centres unmarked) [Example 166, 4-[1-(4-tert-Butylcyclohexyl)-3-(4-chlorophenyl)ureidomethyl]-N-(1,3-dioxo-2,3-dihydro-1H-isoindol-5-yl)benzamide] reads over 50%; that for `CC(C)(C)C1CCC(N(Cc2ccc(C(=O)Nc3ccc4c(c3)OCCO4)cc2)C(=O)Nc2cc(Cl)cc(Cl)c2)CC1` (centres unmarked) [Example 168, 4-[1-(4-tert-Butylcyclohexyl)-3-(3,5-dichlorophenyl)ureidomethyl]-N-(2,3-dihydro-1,4-benzodioxin-6-yl)benzamide], over 50%; that for `CC(C)(C)C1CCC(N(Cc2ccc(C(=O)Nc3ccc(O)c([N+](=O)[O-])c3)cc2)C(=O)Nc2cc(Cl)cc(Cl)c2)CC1` (centres unmarked) [Example 169, 4-[1-(4-tert-Butylcyclohexyl)-3-(3,5-dichlorophenyl)ureidomethyl]-N-(4-hydroxy-3-nitrophenyl)benzamide], over 50%.
The same measure, in the same setting: with `CC(C)(C)C1CCC(N(Cc2ccc(C(=O)Nc3ncnc4[nH]ncc34)cc2)C(=O)Nc2cc(Cl)cc(Cl)c2)CC1` (centres unmarked) [Example 170, 4-[1-(4-tert-Butylcyclohexyl)-3-(3,5-dichlorophenyl)ureidomethyl]-N-(1H-pyrazolo[3,4-d]pyrimidin-4-yl)benzamide] the figure was over 50%; with `CC(C)(C)C1CCC(N(Cc2ccc(C(=O)Nc3ccc4c(c3)C(=O)NC4=O)cc2)C(=O)Nc2cc(Cl)cc(Cl)c2)CC1` (centres unmarked) [Example 171, 4-[1-(4-tert-Butylcyclohexyl)-3-(3,5-dichlorophenyl)ureidomethyl]-N-(1,3-dioxo-2,3-dihydro-1H-isoindol-5-yl)benzamide], over 50%.

For orientation: IC50 means the concentration needed to halve the response being measured.

Source of the values: patent publication US6875760B2 (Novo Nordisk A/S, priority 1999, dated 2005).
